Patent publication US8604061B2, “2-aminooxazolines as TAAR1 ligands” (Hoffmann-La Roche Inc., priority 2007, dated 2013)

The molecules below were run against TAAR1 (Mus musculus, UniProt Q923Y8) (assay: TAAR1 radioligand binding, membranes of stably transfected HEK293 cells (mouse)). Conditions: not given.
Description: For the construction of expression plasmids the coding sequences of human, rat and mouse TAAR 1 were amplified from genomic DNA essentially as described by Lindemann et al.. The Expand High Fidelity PCR System (Roche Diagnostics) was used with 1.5 mM Mg^2+ and purified PCR products were cloned into pCR2.1-TOPO cloning vector (Invitrogen) following the instructions of the manufacturer. PCR products were subcloned into the pIRESneo2 vector (BD Clontech, Palo Alto, Calif.), and expression vectors were sequence verified before introduction in cell lines.
HEK293 cells (ATCC #CRL-1573) were cultured essentially as described Lindemann et al. (2005). For the generation of stably transfected cell lines HEK293 cells were transfected with the pIRESneo2 expression plasmids containing the TAAR coding sequences (described above) with Lipofectamine 2000 (Invitrogen) according to the instructions of the manufacturer, and 24 hrs post transfection the culture medium was supplemented with 1 mg/ml G418 (Sigma, Buchs, Switzerland). After a culture period of about 10 d clones were isolated, expanded and tested for responsiveness to trace amines (all compounds purchased from Sigma) with the cAMP Biotrak Enzyme immunoassay (EIA) System (Amersham) following the non-acetylation EIA procedure provided by the manufacturer.
Cells at confluence were rinsed with ice-cold phosphate buffered saline without Ca^2+ and Mg^2+ containing 10 mM EDTA and pelleted by centrifugation at 1000 rpm for 5 min at 4° C. The pellet was then washed twice with ice-cold phosphate buffered saline and cell pellet was frozen immediately by immersion in liquid nitrogen and stored until use at −80° C. Cell pellet was then suspended in 20 ml HEPES-NaOH (20 mM), pH 7.4 containing 10 mM EDTA, and homogenized with a Polytron (PT 3000, Kinematica) at 10,000 rpm for 10 s. The homogenate was centrifuged at 48,000×g for 30 min at 4° C. and the pellet resuspended in 20 ml HEPES-NaOH (20 mM), pH 7.4 containing 0.1 mM EDTA (buffer A), and homogenized with a Polytron at 10,000 rpm for 10 s. The homogenate was then centrifuged at 48,000×g for 30 min at 4° C. and the pellet resuspended in 20 ml buffer A, and homogenized with a Polytron at 10,000 rpm for 10 s. Protein concentration was determined by the method of Pierce (Rockford, Ill.). The homogenate was then centrifuged at 48,000×g for 10 min at 4° C., resuspended in HEPES-NaOH (20 mM), pH 7.0 including MgCl2 (10 mM) and […] homogenized with a Polytron at 10,000 rpm for 10 s.
Binding assay was performed at 4° C. in a final volume of 1 ml, and with an incubation time of 30 min. […] Non-specific binding was defined as the amount of [^3H]-rac-2-(1,2,3,4-tetrahydro-1-naphthyl)-2-imidazoline bound in the presence of the appropriate unlabelled ligand (10 μM). Competing ligands were tested in a wide range of concentrations (10 pM-30 μM). […] Each experiment was performed in duplicate. All incubations were terminated by rapid filtration through UniFilter-96 plates (Packard Instrument Company) and glass filter GF/C, pre-soaked for at least 2 h in polyethylenimine 0.3%, and using a Filtermate 96 Cell Harvester (Packard Instrument Company). The tubes and filters were then washed 3 times with 1 ml aliquots of cold buffer B. Filters were not dried and soaked in Ultima gold (45 μl/well, Packard Instrument Company) and bound radioactivity was counted by a TopCount Microplate Scintillation Counter (Packard Instrument Company).

| SMILES | Ki |
| --- | --- |
| Cc1cccc(CC[C@H]2COC(N)=N2)c1 [Example 115, (S)-4-(2-m-Tolyl-ethyl)-4,5-dihydro-oxazol-2-ylamine] | 0.001 µM |
| NC1=N[C@@H](CCc2ccc(F)cc2Cl)CO1 [Example 139, (S)-4-[2-(2-Chloro-4-fluoro-phenyl)-ethyl]-4,5-dihydro-oxazol-2-ylamine] | 0.0019 µM |

Same assay, conditions: mouse/rat; cell not marked 'rat'; radioligand [3H]-rac-2-(1,2,3,4-tetrahydro-1-naphthyl)-2-imidazoline, 4° C.; read-out: Ki (μM) mouse/rat

| SMILES | Ki |
| --- | --- |
| NC1=N[C@@H](c2cc(F)c(F)cc2F)CO1 [Example 107, (S)-4-(2,4,5-Trifluoro-phenyl)-4,5-dihydro-oxazol-2-ylamine] | 0.004 µM |
| NC1=N[C@@H](c2cccc(Cl)c2F)CO1 [Example 109, (S)-4-(3-Chloro-2-fluoro-phenyl)-4,5-dihydro-oxazol-2-ylamine] | 0.0014 µM |
| NC1=N[C@@H](CCc2ccccc2C(F)(F)F)CO1 [Example 110, (S)-4-[2-(2-Trifluoromethyl-phenyl)-ethyl]-4,5-dihydro-oxazol-2-ylamine] | 0.0018 µM |
| NC1=N[C@@H](CCc2ccccc2F)CO1 [Example 111, (S)-4-[2-(2-Fluoro-phenyl)-ethyl]-4,5-dihydro-oxazol-2-ylamine] | 0.0011 µM |
| NC1=N[C@@H](CCc2cccc(F)c2)CO1 [Example 112, (S)-4-[2-(3-Fluoro-phenyl)-ethyl]-4,5-dihydro-oxazol-2-ylamine] | 0.0012 µM |
| NC1=N[C@@H](CCc2cc(F)cc(F)c2)CO1 [Example 113, (S)-4-[2-(3,5-Difluoro-phenyl)-ethyl]-4,5-dihydro-oxazol-2-ylamine] | 0.0016 µM |
| Cc1ccccc1CC[C@H]1COC(N)=N1 [Example 114, (S)-4-(2-o-Tolyl-ethyl)-4,5-dihydro-oxazol-2-ylamine] | 0.0021 µM |
| Cc1ccc(CC[C@H]2COC(N)=N2)cc1 [Example 116, (S)-4-(2-p-Tolyl-ethyl)-4,5-dihydro-oxazol-2-ylamine] | 0.0012 µM |
| NC1=N[C@@H](c2cc(F)cc(F)c2F)CO1 [Example 118, (S)-4-(2,3,5-Trifluoro-phenyl)-4,5-dihydro-oxazol-2-ylamine] | 0.003 µM |
| NC1=N[C@@H](CCc2ccc(C(F)(F)F)cc2)CO1 [Example 119, (S)-4-[2-(4-Trifluoromethyl-phenyl)-ethyl]-4,5-dihydro-oxazol-2-ylamine] | 0.0026 µM |
| NC1=N[C@@H](CCc2cccc(C(F)(F)F)c2)CO1 [Example 120, (S)-4-[2-(3-Trifluoromethyl-phenyl)-ethyl]-4,5-dihydro-oxazol-2-ylamine] | 0.0014 µM |
| NC1=N[C@@H](c2ccccc2C(F)(F)F)CO1 [Example 122, (S)-4-(2-Trifluoromethyl-phenyl)-4,5-dihydro-oxazol-2-ylamine] | 0.0034 µM |
| NC1=N[C@H](CCc2ccc(Cl)c(Cl)c2)CO1 [Example 124, (R)-4-[2-(3,4-Dichloro-phenyl)-ethyl]-4,5-dihydro-oxazol-2-ylamine] | 0.0044 µM |
| NC1=N[C@@H](CCc2ccc(Cl)c(Cl)c2)CO1 [Example 127, (S)-4-[2-(3,4-Dichloro-phenyl)-ethyl]-4,5-dihydro-oxazol-2-ylamine] | 0.0003 µM |
| COc1ccc([C@H]2COC(N)=N2)cc1C [Example 129, (S)-4-(4-Methoxy-3-methyl-phenyl)-4,5-dihydro-oxazol-2-ylamine] | 0.0029 µM |
| COc1ccc([C@H]2COC(N)=N2)cc1Cl [Example 131, (S)-4-(3-Chloro-4-methoxy-phenyl)-4,5-dihydro-oxazol-2-ylamine] | 0.0024 µM |
| NC1=N[C@@H](CCc2ccc(Cl)cc2F)CO1 [Example 132, (S)-4-[2-(4-Chloro-2-fluoro-phenyl)-ethyl]-4,5-dihydro-oxazol-2-ylamine] | 0.0007 µM |
| NC1=N[C@@H](CCc2ccc(F)c(C(F)(F)F)c2)CO1 [Example 133, (S)-4-[2-(4-Fluoro-3-trifluoromethyl-phenyl)-ethyl]-4,5-dihydro-oxazol-2-ylamine] | 0.0022 µM |
| C[C@]1(c2ccc(Cl)c(Cl)c2)COC(N)=N1 [Example 135, (S)-4-(3,4-Dichloro-phenyl)-4-methyl-4,5-dihydro-oxazol-2-ylamine] | 0.0009 µM |

| SMILES | Ki |
| --- | --- |
| C[C@]1(c2ccc(Cl)cc2)COC(N)=N1 [Example 136, (S)-4-(4-Chloro-phenyl)-4-methyl-4,5-dihydro-oxazol-2-ylamine] | 0.0038 µM |
| NC1=N[C@@H](CCc2ccc(C(F)(F)F)c(F)c2)CO1 [Example 137, (S)-4-[2-(3-Fluoro-4-trifluoromethyl-phenyl)-ethyl]-4,5-dihydro-oxazol-2-ylamine] | 0.0025 µM |
| NC1=N[C@@H](CCc2cc(Cl)cc(Cl)c2)CO1 [Example 138, (S)-4-[2-(3,5-Dichloro-phenyl)-ethyl]-4,5-dihydro-oxazol-2-ylamine] | 0.0012 µM |
| Cc1cc(CC[C@H]2COC(N)=N2)ccc1F [Example 140, (S)-4-[2-(4-Fluoro-3-methyl-phenyl)-ethyl]-4,5-dihydro-oxazol-2-ylamine] | 0.001 µM |
| NC1=N[C@@H](CCc2cccc(OC(F)(F)C(F)F)c2)CO1 [Example 141, (S)-4-{2-[3-(1,1,2,2-Tetrafluoro-ethoxy)-phenyl]-ethyl}-4,5-dihydro-oxazol-2-ylamine] | 0.0027 µM |
| NC1=N[C@@H](CCc2cccc(C(F)(F)F)c2F)CO1 [Example 142, (S)-4-[2-(2-Fluoro-3-trifluoromethyl-phenyl)-ethyl]-4,5-dihydro-oxazol-2-ylamine] | 0.0018 µM |
| NC1=N[C@@H](CCc2cccc(Br)c2)CO1 [Example 143, (S)-4-[2-(3-Bromo-phenyl)-ethyl]-4,5-dihydro-oxazol-2-ylamine] | 0.0007 µM |
| NC1=N[C@@H](CCc2ccc(Cl)c(C(F)(F)F)c2)CO1 [Example 144, (S)-4-[2-(4-Chloro-3-trifluoromethyl-phenyl)-ethyl]-4,5-dihydro-oxazol-2-ylamine] | 0.0012 µM |
| NC1=N[C@@H](CCc2ccc(OC(F)(F)F)c(F)c2)CO1 [Example 145, (S)-4-[2-(3-Fluoro-4-trifluoromethoxy-phenyl)-ethyl]-4,5-dihydro-oxazol-2-ylamine] | 0.0026 µM |
| NC1=N[C@@H](CCc2ccc(F)c(OC(F)(F)F)c2)CO1 [Example 146, (S)-4-[2-(4-Fluoro-3-trifluoromethoxy-phenyl)-ethyl]-4,5-dihydro-oxazol-2-ylamine] | 0.0041 µM |
| C[C@]1(c2ccc(C(F)(F)F)cc2)COC(N)=N1 [Example 147, (S)-4-Methyl-4-(4-trifluoromethyl-phenyl)-4,5-dihydro-oxazol-2-ylamine] | 0.0041 µM |
| NC1=N[C@@H](CCc2cccc(Cl)c2Cl)CO1 [Example 149, (S)-4-[2-(2,3-Dichloro-phenyl)-ethyl]-4,5-dihydro-oxazol-2-ylamine] | 0.0019 µM |
| NC1=N[C@@H](CCc2ccc(OC(F)(F)F)c(Cl)c2)CO1 [Example 150, (S)-4-[2-(3-Chloro-4-trifluoromethoxy-phenyl)-ethyl]-4,5-dihydro-oxazol-2-ylamine] | 0.0009 µM |
| NC1=N[C@@H](CCc2cccc(C(F)(F)F)c2Cl)CO1 [Example 151, (S)-4-[2-(2-Chloro-3-trifluoromethyl-phenyl)-ethyl]-4,5-dihydro-oxazol-2-ylamine] | 0.001 µM |
| NC1=N[C@@H](c2cccc(C(F)(F)F)c2)CO1 [Example 153, (S)-4-(3-Trifluoromethyl-phenyl)-4,5-dihydro-oxazol-2-ylamine] | 0.0083 µM |
| CC(Cc1ccccc1)[C@H]1COC(N)=N1 (stereo partly drawn) [Example 154, (S)-4-(1-Methyl-2-phenyl-ethyl)-4,5-dihydro-oxazol-2-ylamine] | 0.0034 µM |
| NC1=N[C@@H](CCc2cc(C(F)(F)F)ccc2F)CO1 [Example 156, (S)-4-[2-(2-Fluoro-5-trifluoromethyl-phenyl)-ethyl]-4,5-dihydro-oxazol-2-ylamine] | 0.0064 µM |
| NC1=N[C@@H](CCc2ccncc2F)CO1 [Example 158, (S)-4-[2-(3-Fluoro-pyridin-4-yl)-ethyl]-4,5-dihydro-oxazol-2-ylamine] | 0.0068 µM |
